In PubChem BioAssay (NCI) one finds TGI and GI50 data, which are given here for 27 compounds.

Each structure is given as a SMILES string.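 A five-concentration, 48-hour dose response in 96-well plates underlies each endpoint, interpolated linearly between surrounding concentrations. The concentration for 50% growth inhibition is given as GI50. TGI is the concentration that stops growth completely.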 Bounds are passed on as bounds.

One test concerns SW-620 colon. The test is described as follows: growth of human tumour cells (NCI), 48 h.
As for `CS(=O)(=O)OCCn1c(=O)n(CCOS(C)(=O)=O)c(=O)n(CCOS(C)(=O)=O)c1=O`, the TGI was more than 100 µM.

Turning to `O=P(c1ccccc1)(c1ccccc1)N1O[C@@H](c2ccccc2)C=C[C@H]1c1ccccc1`, the TGI was determined as 31.8 µM.

For `CC(C)(C)NC(=O)/C(=C\Sc1ccccc1)c1ccc2c(c1)OCO2`, the TGI is more than 100 µM.

`COc1nc(C#CCC(C)O)nc(OC)n1` (stereo unspecified) yielded a TGI of 47.7 µM.

For `COC(=O)[C@]12CC[C@H]3CN(C(=O)OCc4ccccc4)[C@H]([C@H]31)[C@H](c1ccco1)N2S(=O)(=O)c1ccc(C)cc1`, the TGI was more than 100 µM.

In turn, `Cc1c2c(n(CCc3ccc(Cl)cc3)c1C)NN=C(C#N)S2(=O)=O` had a TGI of more than 100 µM.

For the compound `CCN(C(=S)N[C@@H](Cc1ccccc1)C(=O)N[C@@H](CC(C)C)C(=O)OC)c1ccccc1`, the TGI was more than 100 µM.

`CCCn1c(CN(Cc2nc3ccccc3n2CCC)Cc2nc3ccccc3n2CCC)nc2ccccc21` displayed a TGI of more than 100 µM.

On to `CSc1c(C#N)c(N)n2c1C(=O)N(c1ccccc1)C2=S`, for which the TGI was more than 100 µM.

As for `COc1ccc2cc(-c3ccc(-c4ccc(C(=N)N)s4)s3)ccc2c1`, the GI50 is 1.91 µM and the TGI turned out to be 3.81 µM.

For `N#CCCN(CCC#N)c1ccc(/C=C2\N=C(c3ccccc3)N(c3ccc(Cl)cc3)C2=O)cc1`, the TGI is more than 100 µM.

For the compound `Cc1c(S(=O)(=O)/N=C(\N)Nc2ccc(Cl)cc2)sc2ccc(Cl)cc12`, the TGI worked out at 58.1 µM.

Take `NNC(=O)c1ccc[n+](CCc2ccccc2)c1`: the TGI was more than 100 µM.

In turn, `CC(=O)N/N=C1\NC(=O)C[C@H]2[C@@H]3CC=C4C[C@@H](OC(C)=O)CC[C@]4(C)[C@H]3CC[C@]12C` had a TGI of more than 100 µM.

As to `C=C[C@@H]1C(CO)=CCC2[C@H]1CCC1C(C)(C)C(=O)CC[C@]21C` (stereo partly specified), the TGI was more than 100 µM.

Consider `COc1ccc2cc3c4cc5c(cc4cc[n+]3cc2c1OC)OCO5`, for which the TGI is more than 62.2 µM.

For `C/C(CC1C2CCCC1C2)=N\NC(N)=O` (stereo unspecified), the TGI is more than 100 µM.

Consider `N#CC(C#N)=CNC(=S)c1ccncc1`, for which the TGI was more than 100 µM.

With `Clc1ccc(-c2nn3c(-c4ccncc4)nnc3s2)cc1`, the TGI was more than 100 µM.

For `O=C1/C(=C\c2cccc(Oc3ccccc3)c2)S(=O)(=O)C(c2ccccc2)N1Cc1ccccc1` (stereo unspecified), the TGI was more than 100 µM.

In turn, `CCN(CC)CCOc1ccc(N2C(=O)c3cc(OC)c(OC)cc3C2=O)cc1` returned a TGI of more than 100 µM.

In the case of `COc1ccc(C#CC(=O)O)c(OC)c1`, the TGI is more than 100 µM.

`CSc1cc(Cl)c(C)cc1S(=O)(=O)NC(=O)NNc1ccc(Cl)cc1`: the TGI was more than 100 µM.

In turn, `CCOC(=O)NC(=S)NN(C)C1=NCC(C)(C)S1` gave a TGI of more than 100 µM.

`O=c1c2cc3c(cc2[nH]c2ncccc12)OCO3` came in with a TGI of more than 10 µM.

A further test concerns T-47D breast. The test is described as follows: growth of human tumour cells (NCI), 48 h.
Compound `CS(=O)(=O)OCCn1c(=O)n(CCOS(C)(=O)=O)c(=O)n(CCOS(C)(=O)=O)c1=O` returned a TGI of more than 100 µM.

On to `O=P(c1ccccc1)(c1ccccc1)N1O[C@@H](c2ccccc2)C=C[C@H]1c1ccccc1`, for which the TGI was found to be 20 µM.

`CC(C)(C)NC(=O)/C(=C\Sc1ccccc1)c1ccc2c(c1)OCO2` had a TGI of more than 100 µM.

For `COc1nc(C#CCC(C)O)nc(OC)n1` (stereo unspecified), the TGI is more than 100 µM.

In turn, `COC(=O)[C@]12CC[C@H]3CN(C(=O)OCc4ccccc4)[C@H]([C@H]31)[C@H](c1ccco1)N2S(=O)(=O)c1ccc(C)cc1` yielded a TGI of 93 µM.

`Cc1c2c(n(CCc3ccc(Cl)cc3)c1C)NN=C(C#N)S2(=O)=O` had a TGI of more than 100 µM.

Turning to `CCN(C(=S)N[C@@H](Cc1ccccc1)C(=O)N[C@@H](CC(C)C)C(=O)OC)c1ccccc1`, the TGI was more than 100 µM.

As to `CCCn1c(CN(Cc2nc3ccccc3n2CCC)Cc2nc3ccccc3n2CCC)nc2ccccc21`, the TGI worked out at 28.6 µM.

With `CSc1c(C#N)c(N)n2c1C(=O)N(c1ccccc1)C2=S`, the TGI is more than 100 µM.

Consider `COc1ccc2cc(-c3ccc(-c4ccc(C(=N)N)s4)s3)ccc2c1`, for which the GI50 is 1.79 µM and the TGI was found to be 4.01 µM.

As for `N#CCCN(CCC#N)c1ccc(/C=C2\N=C(c3ccccc3)N(c3ccc(Cl)cc3)C2=O)cc1`, the TGI was more than 100 µM.

As to `Cc1c(S(=O)(=O)/N=C(\N)Nc2ccc(Cl)cc2)sc2ccc(Cl)cc12`, the TGI is more than 100 µM.

As for `NNC(=O)c1ccc[n+](CCc2ccccc2)c1`, the TGI is more than 100 µM.

For `CC(=O)N/N=C1\NC(=O)C[C@H]2[C@@H]3CC=C4C[C@@H](OC(C)=O)CC[C@]4(C)[C@H]3CC[C@]12C`, the TGI was more than 100 µM.

`C=C[C@@H]1C(CO)=CCC2[C@H]1CCC1C(C)(C)C(=O)CC[C@]21C` (stereo partly specified): the TGI is more than 100 µM.

On to `COc1ccc2cc3c4cc5c(cc4cc[n+]3cc2c1OC)OCO5`, for which the TGI was more than 100 µM.

The compound `CCN(CCO)CC1COc2ccccc2O1` (stereo unspecified) gave a TGI of more than 100 µM.

The compound `COc1ccc2nc3cc(Cl)ccc3c(NCCCNCCCNc3c4ccc(Cl)cc4nc4ccc(OC)cc34)c2c1` returned a TGI of 1.23 µM.

In turn, `C/C(CC1C2CCCC1C2)=N\NC(N)=O` (stereo unspecified) yielded a TGI of more than 100 µM.

Compound `N#CC(C#N)=CNC(=S)c1ccncc1` registered a TGI of more than 100 µM.

Consider `Clc1ccc(-c2nn3c(-c4ccncc4)nnc3s2)cc1`, for which the TGI is more than 100 µM.

Regarding `O=C1/C(=C\c2cccc(Oc3ccccc3)c2)S(=O)(=O)C(c2ccccc2)N1Cc1ccccc1` (stereo unspecified), the TGI is more than 100 µM.

Regarding `CCN(CC)CCOc1ccc(N2C(=O)c3cc(OC)c(OC)cc3C2=O)cc1`, the TGI is more than 100 µM.

Turning to `COc1ccc(C#CC(=O)O)c(OC)c1`, the TGI is more than 100 µM.

As to `CSc1cc(Cl)c(C)cc1S(=O)(=O)NC(=O)NNc1ccc(Cl)cc1`, the TGI is more than 100 µM.

In the case of `CCOC(=O)NC(=S)NN(C)C1=NCC(C)(C)S1`, the TGI is more than 100 µM.

Consider `O=c1c2cc3c(cc2[nH]c2ncccc12)OCO3`, for which the TGI was more than 10 µM.

For the next test, the system named is SK-MEL-28 melanoma. The test is described as follows: growth of human tumour cells (NCI), 48 h.
As for `CS(=O)(=O)OCCn1c(=O)n(CCOS(C)(=O)=O)c(=O)n(CCOS(C)(=O)=O)c1=O`, the TGI was more than 100 µM.

The compound `O=P(c1ccccc1)(c1ccccc1)N1O[C@@H](c2ccccc2)C=C[C@H]1c1ccccc1` displayed a TGI of 38.3 µM.

The compound `CC(C)(C)NC(=O)/C(=C\Sc1ccccc1)c1ccc2c(c1)OCO2` displayed a TGI of more than 100 µM.

In the case of `COc1nc(C#CCC(C)O)nc(OC)n1` (stereo unspecified), the TGI is more than 100 µM.

In turn, `COC(=O)[C@]12CC[C@H]3CN(C(=O)OCc4ccccc4)[C@H]([C@H]31)[C@H](c1ccco1)N2S(=O)(=O)c1ccc(C)cc1` returned a TGI of more than 100 µM.

As for `Cc1c2c(n(CCc3ccc(Cl)cc3)c1C)NN=C(C#N)S2(=O)=O`, the TGI is more than 100 µM.

Compound `CCN(C(=S)N[C@@H](Cc1ccccc1)C(=O)N[C@@H](CC(C)C)C(=O)OC)c1ccccc1` registered a TGI of more than 100 µM.

In turn, `CCCn1c(CN(Cc2nc3ccccc3n2CCC)Cc2nc3ccccc3n2CCC)nc2ccccc21` displayed a TGI of 38.1 µM.

Regarding `CSc1c(C#N)c(N)n2c1C(=O)N(c1ccccc1)C2=S`, the TGI is more than 100 µM.

Turning to `COc1ccc2cc(-c3ccc(-c4ccc(C(=N)N)s4)s3)ccc2c1`, the GI50 was 2.5 µM and the TGI came out at 6.04 µM.

On to `N#CCCN(CCC#N)c1ccc(/C=C2\N=C(c3ccccc3)N(c3ccc(Cl)cc3)C2=O)cc1`, for which the TGI is more than 100 µM.
